The experiment deals with human MGL from HeLa cells (Homo sapiens (Human), UniProt Q99685). The experiment is described as follows: MGL in vitro activity assay ([glycerol-1,3-3H]-oleoyl glycerol hydrolysis, activated carbon filtration). The format is biochemical. The conditions noted are these: 300 nM [Glycerol-1,3-3H]-oleoyl glycerol, one hour. In outline: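 Endogenous human MGL in HeLa cells/homogenates incubated 1 h with test compounds and 300 nM [glycerol-1,3-3H]-oleoyl glycerol. Released 3H-glycerol passing an activated carbon filter counted as activity; screening at 10 μM compound, top IC50 concentration set empirically.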
human MGL from HeLa cells, sequence (Q99685 whole entry): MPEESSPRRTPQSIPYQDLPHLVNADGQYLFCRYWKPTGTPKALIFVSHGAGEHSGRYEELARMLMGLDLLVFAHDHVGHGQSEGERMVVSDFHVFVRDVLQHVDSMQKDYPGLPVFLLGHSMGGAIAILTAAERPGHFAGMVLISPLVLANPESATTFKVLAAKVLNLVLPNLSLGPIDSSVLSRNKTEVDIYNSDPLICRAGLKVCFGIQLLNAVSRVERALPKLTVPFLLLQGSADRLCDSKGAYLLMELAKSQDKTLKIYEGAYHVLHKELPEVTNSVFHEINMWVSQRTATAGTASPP
The IC50 is the point on the concentration scale where inhibition reaches its midpoint. A higher IC50 goes with lower potency. In turn, `C[C@]1(O)C[C@@H](C(=O)N2CC3(CC[C@H](c4cccc(C5CC5)c4)C3)C2)C1` (stereo in doubt) [Example 60, ((*S)-6-(3-Cyclopropylphenyl)-2-azaspiro[3.4]octan-2-yl)((1s,3*R)-3-hydroxy-3-methylcyclobutyl)methanone] had an IC50 of 25 nM.
For `C[C@]1(O)C[C@@H](C(=O)N2CC3(CC[C@@H](c4cccc(C(F)(F)F)c4)C3)C2)C1` (stereo in doubt) [Example 62, ((1s,3*S)-3-Hydroxy-3-methylcyclobutyl)((*R)-6-(3-(trifluoromethyl)phenyl)-2-azaspiro[3.4]octan-2-yl)methanone], the IC50 was found to be 34 nM.
In turn, `C[C@]1(O)C[C@@H](C(=O)N2CC3(CC[C@H](c4cccc(C(F)(F)F)c4)C3)C2)C1` (stereo in doubt) [Example 63, ((1s,3*R)-3-Hydroxy-3-methylcyclobutyl)((*S)-6-(3-(trifluoromethyl)phenyl)-2-azaspiro[3.4]octan-2-yl)methanone] returned an IC50 of 22 nM.
The value for `Cc1cc([C@@H]2CCC3(C2)CN(C(=O)[C@H]2C[C@@](C)(O)C2)C3)ccc1OC(F)F` (stereo in doubt) [Example 73, ((*R)-6-(4-(Difluoromethoxy)-3-methylphenyl)-2-azaspiro[3.4]octan-2-yl)((1s,3*S)-3-hydroxy-3-methylcyclobutyl)methanone] was 8.1 nM; that for `Cc1cc([C@H]2CCC3(C2)CN(C(=O)[C@H]2C[C@@](C)(O)C2)C3)ccc1OC(F)F` (stereo in doubt) [Example 74, ((*S)-6-(4-(Difluoromethoxy)-3-methylphenyl)-2-azaspiro[3.4]octan-2-yl)((1s,3*R)-3-hydroxy-3-methylcyclobutyl)methanone] was 6.8 nM; that for `C[C@]1(O)C[C@@H](C(=O)N2CC3(CC[C@H](Cc4cccc(C(F)(F)F)c4)C3)C2)C1` (stereo in doubt) [Example 177, ((1s,3*S)-3-Hydroxy-3-methylcyclobutyl)((*R)-6-(3-(trifluoromethyl)benzyl)-2-azaspiro[3.4]octan-2-yl)methanone] was 14 nM.
For `C[C@]1(O)C[C@@H](C(=O)N2CC3(CC[C@@H](Cc4cccc(C(F)(F)F)c4)C3)C2)C1` (stereo in doubt) [Example 178, ((1s,3*R)-3-Hydroxy-3-methylcyclobutyl)((*S)-6-(3-(trifluoromethyl)benzyl)-2-azaspiro[3.4]octan-2-yl)methanone], the IC50 was 11 nM.
`C[C@@H](c1ccccc1)C1CC2(C1)CN(C(=O)[C@H]1C[C@@](C)(O)C1)C2` (stereo in doubt) [Example 310, ((1s,3*S)-3-Hydroxy-3-methylcyclobutyl)(6-((*R)-1-phenylethyl)-2-azaspiro[3.3]heptan-2-yl)methanone]: inhibition was half-maximal at 33 nM (IC50).
`C[C@H](c1ccccc1)C1CC2(C1)CN(C(=O)[C@H]1C[C@@](C)(O)C1)C2` (stereo in doubt) [Example 311, ((1s,3*R)-3-Hydroxy-3-methylcyclobutyl)(6-((*S)-1-phenylethyl)-2-azaspiro[3.3]heptan-2-yl)methanone] displayed an IC50 of 77 nM.
The value for `Cc1nc([C@H](C)C2CC3(C2)CN(C(=O)[C@H]2C[C@@](C)(O)C2)C3)ccc1C(F)(F)F` (stereo in doubt) [Example 312, ((1s,3*S)-3-Hydroxy-3-methylcyclobutyl)(6-((*R)-1-(6-methyl-5-(trifluoromethyl)pyridin-2-yl)ethyl)-2-azaspiro[3.3]heptan-2-yl)methanone] was 5.4 nM; that for `Cc1nc([C@@H](C)C2CC3(C2)CN(C(=O)[C@H]2C[C@@](C)(O)C2)C3)ccc1C(F)(F)F` (stereo in doubt) [Example 313, ((1s,3*R)-3-Hydroxy-3-methylcyclobutyl)(6-((*S)-1-(6-methyl-5-(trifluoromethyl)pyridin-2-yl)ethyl)-2-azaspiro[3.3]heptan-2-yl)methanone] was 52 nM.
Next, `C[C@@H](c1ccc2cnn(C)c2c1)C1CC2(C1)CN(C(=O)[C@H]1C[C@@](C)(O)C1)C2` (stereo in doubt) [Example 314, ((1s,3*S)-3-Hydroxy-3-methylcyclobutyl)(6-((*R)-1-(1-methyl-1H-indazol-6-yl)ethyl)-2-azaspiro[3.3]heptan-2-yl)methanone]: 130 nM; `C[C@H](c1ccc2cnn(C)c2c1)C1CC2(C1)CN(C(=O)[C@H]1C[C@@](C)(O)C1)C2` (stereo in doubt) [Example 315, ((1s,3*R)-3-Hydroxy-3-methylcyclobutyl)(6-((*S)-1-(1-methyl-1H-indazol-6-yl)ethyl)-2-azaspiro[3.3]heptan-2-yl)methanone]: 45 nM; `Cc1ccc([C@H]2CCC3(C2)CN(C(=O)[C@H]2C[C@@](C)(O)C2)C3)c(C)c1` (stereo in doubt) [Example 321, ((*S)-6-(2,4-Dimethylphenyl)-2-azaspiro[3.4]octan-2-yl)((1s,3*R)-3-hydroxy-3-methylcyclobutyl)methanone]: 36 nM.
As to `Cc1ccc([C@@H]2CCC3(C2)CN(C(=O)[C@H]2C[C@@](C)(O)C2)C3)c(C)c1` (stereo in doubt) [Example 322, ((*R)-6-(2,4-Dimethylphenyl)-2-azaspiro[3.4]octan-2-yl)((1s,3*S)-3-hydroxy-3-methylcyclobutyl)methanone], the midpoint of inhibition, the IC50, lay at 64 nM.
Next, `Cc1cc(C)cc([C@H]2CC[C@]3(CC2)CN(C(=O)[C@H]2C[C@@](C)(O)C2)[C@H]3C)c1` (stereo in doubt) [Example 348, ((1*S,4r,7*S)-7-(3,5-Dimethylphenyl)-1-methyl-2-azaspiro[3.5]nonan-2-yl)((1s,3*R)-3-hydroxy-3-methylcyclobutyl)methanone]: 326 nM; `Cc1cc(C)cc([C@H]2CC[C@]3(CC2)CN(C(=O)[C@H]2C[C@@](C)(O)C2)[C@@H]3C)c1` (stereo in doubt) [Example 349, ((1*R,4r,7*R)-7-(3,5-Dimethylphenyl)-1-methyl-2-azaspiro[3.5]nonan-2-yl)((1s,3*S)-3-hydroxy-3-methylcyclobutyl)methanone]: 523 nM.
Consider `Cc1cc(C)cc([C@H]2CC[C@@]3(CC2)CN(C(=O)[C@H]2C[C@@](C)(O)C2)[C@H]3C)c1` (stereo in doubt) [Example 350, ((1*S,4s,7*R)-7-(3,5-Dimethylphenyl)-1-methyl-2-azaspiro[3.5]nonan-2-yl)((1s,3*R)-3-hydroxy-3-methylcyclobutyl)methanone], for which the IC50 turned out to be 34 nM. Compared with the last compound, the IC50 is about 15-fold lower.
The value for `Cc1cc(C)cc([C@H]2CC[C@@]3(CC2)CN(C(=O)[C@H]2C[C@@](C)(O)C2)[C@@H]3C)c1` (stereo in doubt) [Example 351, ((1*R,4s,7*S)-7-(3,5-Dimethylphenyl)-1-methyl-2-azaspiro[3.5]nonan-2-yl)((1s,3*S)-3-hydroxy-3-methylcyclobutyl)methanone] was 77 nM; that for `Cc1nc(O[C@H]2CCC3(C[C@@H]2C)CN(C(=O)[C@H]2C[C@@](C)(O)C2)C3)ccc1C(F)(F)F` (stereo in doubt) [Example 444, ((1s,3*R)-3-Hydroxy-3-methylcyclobutyl)((6*S,7*S)-6-methyl-7-((6-methyl-5-(trifluoromethyl)pyridin-2-yl)oxy)-2-azaspiro[3.5]nonan-2-yl)methanone] was 4.8 nM.
With `Cc1nc(O[C@@H]2CCC3(C[C@H]2C)CN(C(=O)[C@H]2C[C@@](C)(O)C2)C3)ccc1C(F)(F)F` (stereo in doubt) [Example 445, ((1s,3*S)-3-Hydroxy-3-methylcyclobutyl)((6*R,7*R)-6-methyl-7-((6-methyl-5-(trifluoromethyl)pyridin-2-yl)oxy)-2-azaspiro[3.5]nonan-2-yl)methanone], it took 33 nM to reach half-maximal inhibition (IC50). Against the preceding compound, the IC50 is about 6.9-fold higher.
In turn, `CC(C)(C)c1cccc(C2CC3(C2)CN(C(=O)[C@H]2C[C@@](C)(O)C2)C3)c1` [Example 1, (6-(3-(tert-Butyl)phenyl)-2-azaspiro[3.3]heptan-2-yl)((1s,3s)-3-hydroxy-3-methylcyclobutyl)methanone] displayed a 50% inhibitory concentration (IC50) of 9.9 nM. Against the preceding compound, the IC50 is about 3.3-fold lower.
Next, `CC(C)(C)c1ccc(C2CC3(C2)CN(C(=O)[C@H]2C[C@@](C)(O)C2)C3)cc1` [Example 2, (6-(4-(tert-Butyl)phenyl)-2-azaspiro[3.3]heptan-2-yl)((1s,3s)-3-hydroxy-3-methylcyclobutyl)methanone]: 149 nM; `CC(C)c1cccc(C2CC3(C2)CN(C(=O)[C@H]2C[C@@](C)(O)C2)C3)c1` [Example 3, ((1s,3s)-3-Hydroxy-3-methylcyclobutyl)(6-(3-isopropylphenyl)-2-azaspiro[3.3]heptan-2-yl)methanone]: 24 nM; `CC(C)c1ccc(C2CC3(C2)CN(C(=O)[C@H]2C[C@@](C)(O)C2)C3)cc1` [Example 4, ((1s,3s)-3-Hydroxy-3-methylcyclobutyl)(6-(4-isopropylphenyl)-2-azaspiro[3.3]heptan-2-yl)methanone]: 128 nM.
In turn, `C[C@]1(O)C[C@@H](C(=O)N2CC3(CC(c4ccc(C5CC5)cc4)C3)C2)C1` [Example 5, (6-(4-Cyclopropylphenyl)-2-azaspiro[3.3]heptan-2-yl)((1s,3s)-3-hydroxy-3-methylcyclobutyl)methanone] registered a half-maximal inhibitory concentration (IC50) of 292 nM. Compared with the last compound, the IC50 is about 2.3-fold higher.
The value for `Cc1ccc(C2CC3(C2)CN(C(=O)[C@H]2C[C@@](C)(O)C2)C3)cc1C(F)(F)F` [Example 6, ((1s,3s)-3-Hydroxy-3-methylcyclobutyl)(6-(4-methyl-3-(trifluoromethyl)phenyl)-2-azaspiro[3.3]heptan-2-yl)methanone] was 31 nM.
With `C[C@]1(O)C[C@@H](C(=O)N2CC3(CC(c4cccc(C5CC5)c4)C3)C2)C1` [Example 20, (6-(3-Cyclopropylphenyl)-2-azaspiro[3.3]heptan-2-yl)((1s,3s)-3-hydroxy-3-methylcyclobutyl)methanone], half-maximal inhibition (IC50) was put at 37 nM.
On to `Cc1c(C2CC3(C2)CN(C(=O)[C@H]2C[C@@](C)(O)C2)C3)cccc1C(F)(F)F` [Example 21, ((1s,3s)-3-Hydroxy-3-methylcyclobutyl)(6-(2-methyl-3-(trifluoromethyl)phenyl)-2-azaspiro[3.3]heptan-2-yl)methanone], for which the IC50 is 112 nM.

(Values after patent US11802111B2, “Cyclobutyl amide monoacylglycerol lipase modulators” (Janssen Pharmaceutica NV, priority 2020, dated 2023).)
